Experimental data published in patent publication US4971964A, “Pyridine derivatives” (priority 1988, dated 1990).

What was measured:
[1] = system: collagen-induced ischemic ECG alterations in spontaneous hypertensive rats (SHR); assay: Test On Inhibition of Collagen-Induced Ischemic Alterations of Electrocardiogram; assay type: in vivo; conditions: 1 mg/kg, iv; for Change of ECG (score 0-3): mean ± standard error, N = 5 to 6
Procedure: Spontaneous hypertensive rats (SHR) (male; 25-30-week-old; available from Hoshino Jikken Dobutsu) were intraperitoneally anesthesized with sodium pentobarbital (60 mg/kg). Each animal was fixed on its back, a venous cannula was inserted into the left jugular vein, and electrocardiograms (ECG) in extremity leads II were taken. A solvent alone (physiological saline containing 0.05N sodium hydroxide) or the test compound (I-12Z or I-13E) dissolved in the same solvent was intravenously administered in an amount of 0.1 ml per 100 g of body weight. Three minutes later, 4.5 mg/kg of collagen III originating from the bovine skin was intravenously injected, and the changes of the ECG were observed over 10 minutes. The ischemic ECG alterations after the intravenous injection of collagen were scored based on the following system according to the method of Matsumura et al., Folia Pharmacol., Japon, and the significance of difference in scores of the control group receiving the solvent alone and the test group was examined by the U-test of Mann-Whitney.
0 . . . Changes of 0.05 mV or less in the S-T segment or the T wave
1 . . . Changes between 0.05 and 0.1 mV in the S-T segment or the T wave
2 . . . Changes of 0.1 mV or more in the S-T segment or the T wave
3 . . . Arrythmia or cardiac arrest

dd male mice = assay: Acute Toxicity Test (minimum lethal dose, MLD); assay type: in vivo
Procedure: A test compound was given to dd male mice weighing 20±1 g (3 mice per group) per os. (p.o.; 300 mg/kg) or intraperitoneally (i.p.; 100 mg/kg). The mortality after 7 days from the administration was considered to determine the minimum lethal dose (MLD).

[2] = system: silver nitrate-induced arteriothromboembolia in male Wistar-Shizuoka rats; assay: Test on Inhibition of Silver Nitrate-Induced Arteriothromboembolia in Rats; assay type: in vivo; conditions: for Number of Obstruction Case/Number of Experiments: control 23/26; for Percent Obstruction: control 88%; for percent obstruction vs control (in words): I-12Z 0.3, 1.0, or 3.0 mg/kg, I-13E 3 mg/kg
Text: Male Wistar -Shizuoka rats weighing 270±20 g were anesthetized with urethane (1.5 g/kg) intraperitoneally. Each animal was fixed on its back, and a venous cannula and an arterial cannula were inserted into the left carotid vein and the left femoral artery, respectively. An abdominal incision was made, the intestinal tract was put aside so that the descending abdominal aorta could be seen, the surrounding connective tissues were removed, the descending aorta was detached to a length of about 1 cm, and the detached descending aorta was put on a globe of 8 cm in diameter. A solvent (0.1 ml; physiological saline containing 0.05N sodium hydroxide) or a drug solution (0.1 ml) in the solvent was injected via the cannulated carotid vein per 100 g of body weight. Three minutes later, a 30% silver nitrate aqueous solution was dropped on the detached descending abdominal aorta. Five minutes later, the globe was removed, and the affected site was washed three times with physiological saline to stop the reaction. After the elapse of 30 minutes from the stopping of the reaction, the blood pressure of the femoral artery was measured, and the pressure fall was taken as an indication of obstruction of the descending arterial. Significance of the difference in degree of the obstruction between the control group (only the solvent was administered) and the test group was assayed by X^2 -assay.

[3] = target: T1, thromboxane synthase (TXA2 synthase), bovine platelet microsome (Bos taurus, UniProt Q2KIG5); assay: Test on Inhibition of TXA2 Biosynthesis (bovine platelet microsome, TXB2 by radioimmunoassay); assay type: biochemical; conditions: bovine platelet microsome, pH 7.4, prostaglandin H2 substrate
T1 construct: bovine platelet microsome; from tissue; host or cells: bovine platelets (microsome)
T1 sequence (Q2KIG5 1-533): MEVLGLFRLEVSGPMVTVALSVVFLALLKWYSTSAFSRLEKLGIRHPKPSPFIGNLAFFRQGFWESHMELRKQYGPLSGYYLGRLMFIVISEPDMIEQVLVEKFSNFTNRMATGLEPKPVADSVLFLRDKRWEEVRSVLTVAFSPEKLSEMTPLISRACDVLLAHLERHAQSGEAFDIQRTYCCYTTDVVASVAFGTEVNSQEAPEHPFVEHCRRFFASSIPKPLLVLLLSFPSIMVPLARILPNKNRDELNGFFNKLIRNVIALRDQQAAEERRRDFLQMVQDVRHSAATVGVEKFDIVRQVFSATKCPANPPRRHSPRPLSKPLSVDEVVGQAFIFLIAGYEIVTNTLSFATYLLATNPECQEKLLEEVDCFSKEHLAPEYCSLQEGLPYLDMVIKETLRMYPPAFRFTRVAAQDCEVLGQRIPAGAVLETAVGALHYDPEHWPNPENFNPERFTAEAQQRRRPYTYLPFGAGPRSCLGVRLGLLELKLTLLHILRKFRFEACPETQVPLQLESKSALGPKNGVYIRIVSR
Procedure: A mixture of 70 μl of bovine platelet microsome [protein: 40 μg; 100 mM tris-HCl buffer (pH=7.4)] and 10 μl of a test compound solution (100 mM tris-HCl buffer containing 10% methanol) was allowed to stand at 0° C. for 5 minutes, and 20 μl of a prostaglandin H2 solution (100 mM tris-HCl buffer supplemented with acetone containing 0.1 nmol of prostaglandin H2) was added thereto as a substrate.
The amount of thromboxane B2 (TXB2) (stable degradation product of TXA2) produced in the system was determined by radioimmunoassay [F. A. Fitzpatrick et al., Methods in Enzymology, Vol. 86, p.286 (1982)].
Inhibition of TXB2 synthesis was evaluated by IC50 (50% inhibitory concentration) or percent inhibition as calculated from equation described below, and the results obtained are shown in Table 1. [formula]

[4] = 0.5 min after collagen injection
[5] = 10 min after collagen injection
[6] = dd male mice, mortality after 7 days

In the case of `CN1C(=O)c2ccncc2/C(=C\CCCCC(=O)O)c2ccccc21` [Compound I-12Z, (Z)-11-(5-carboxypentylidene)-6-methyl-5,11-dihydropyrido[4,3-c][1]benzazepin-5(6H)-one], the “ECG changes vs control (in words)” value [1] is reported as “significantly smaller than those in the control groups”, the “Change of ECG (score 0-3)” value [1, 4] is reported as 0.8 ± 0.5 and the “Change of ECG (score 0-3)” value ([1]; 1 min after collagen injection) is reported as 0.5 ± 0.2. The “Change of ECG (score 0-3)” value ([1]; 2 min after collagen injection) was 1.0 ± 0.4, the “Change of ECG (score 0-3)” value ([1]; 3 min after collagen injection) was 0.8 ± 0.3 and the “Change of ECG (score 0-3)” value ([1]; 4 min after collagen injection) was 0.7 ± 0.2. The “Change of ECG (score 0-3)” value ([1]; 5 min after collagen injection) was 0.2 ± 0.2, the “Change of ECG (score 0-3)” value ([1]; 6 min after collagen injection) was 0.3 ± 0.2 and the “Change of ECG (score 0-3)” value ([1]; 7 min after collagen injection) was 0.5 ± 0.2. The “Change of ECG (score 0-3)” value ([1]; 8 min after collagen injection) was 0.5 ± 0.2, the “Change of ECG (score 0-3)” value ([1]; 9 min after collagen injection) was 0.4 ± 0.2 and the “Change of ECG (score 0-3)” value [1, 5] was 0.3 ± 0.2. The “Acute Toxicity (MLD) ip” value (dd male mice; [6]) was over 100 mg/kg, the “Acute Toxicity (MLD) po” value (dd male mice; [6]) was over 300 mg/kg and the “Number of Obstruction Case/Number of Experiments” value ([2]; 0.1 mg/kg i.v.) was 4/6. The “Percent Obstruction” value ([2]; 0.1 mg/kg i.v.) was 67%, the “Number of Obstruction Case/Number of Experiments” value ([2]; 0.3 mg/kg i.v.) was 1/5 and the “Percent Obstruction” value ([2]; 0.3 mg/kg i.v.) was 20%. For the same molecule, the “Number of Obstruction Case/Number of Experiments” value ([2]; 1.0 mg/kg i.v.) was 0/5, the “Percent Obstruction” value ([2]; 1.0 mg/kg i.v.) was 0% and the “Number of Obstruction Case/Number of Experiments” value ([2]; 3.0 mg/kg i.v.) was 1/5. For the same molecule, the “Percent Obstruction” value ([2]; 3.0 mg/kg i.v.) was 20%, the “percent obstruction vs control (in words)” value ([2]; i.v.) was “significantly lower than that of the control group” and the “inhibition of obstruction vs comparative drugs CV-4151 and OKY-1581 (in words)” value ([2]; i.v.) was “inhibition of obstruction at lower doses as compared with the comparative drugs, CV-4151 and OKY-1581”. The IC50 [3] was 34 nM.

`COC1=Nc2ccncc2/C(=C/CCCCC(=O)O)c2ccccc21` [Compound I-13E, (E)-11-(5-Carboxypentylidene)-6-methoxy-11H-pyrido[4,3-c][2]benzazepin] was tested, and the “ECG changes vs control (in words)” value [1] was “significantly smaller than those in the control groups”, the “Change of ECG (score 0-3)” value [1, 4] was 0 ± 0 and the “Change of ECG (score 0-3)” value ([1]; 1 min after collagen injection) was 0.2 ± 0.2. For the same molecule, the “Change of ECG (score 0-3)” value ([1]; 2 min after collagen injection) was 0.2 ± 0.2, the “Change of ECG (score 0-3)” value ([1]; 3 min after collagen injection) was 0.2 ± 0.2 and the “Change of ECG (score 0-3)” value ([1]; 4 min after collagen injection) was 0.6 ± 0.4. For the same molecule, the “Change of ECG (score 0-3)” value ([1]; 5 min after collagen injection) was 0.2 ± 0.2, the “Change of ECG (score 0-3)” value ([1]; 6 min after collagen injection) was 0.4 ± 0.2 and the “Change of ECG (score 0-3)” value ([1]; 7 min after collagen injection) was 0.4 ± 0.2. The “Change of ECG (score 0-3)” value ([1]; 8 min after collagen injection) was 0.4 ± 0.2, the “Change of ECG (score 0-3)” value ([1]; 9 min after collagen injection) was 0.4 ± 0.2 and the “Change of ECG (score 0-3)” value [1, 5] was 0.2 ± 0.2. The “Acute Toxicity (MLD) ip” value (dd male mice; [6]) was over 100 mg/kg, the “Acute Toxicity (MLD) po” value (dd male mice; mouse, in vivo, 10080 min) was over 300 mg/kg and the “Number of Obstruction Case/Number of Experiments” value ([2]; 1.0 mg/kg i.v.) was 3/4. For the same molecule, the “Percent Obstruction” value ([2]; 1.0 mg/kg i.v.) was 75%, the “Number of Obstruction Case/Number of Experiments” value ([2]; 3.0 mg/kg i.v.) was 1/5 and the “Percent Obstruction” value ([2]; 3.0 mg/kg i.v.) was 20%. The “percent obstruction vs control (in words)” value ([2]; i.v.) was “significantly lower than that of the control group” and the IC50 [3] was 8.4 nM.
